According to publication PMC8305768, “Design, Synthesis and Antiparasitic Evaluation of Click Phospholipids” (Molecules, 2021):
Counter-ions that a name gives are not always drawn.

Columns and labels:
[1] = tested on: mitochondria of 786-0 cells; assay: Mitochondrial toxicity assay (MitoTracker Red CMXRos, 786-0 cells); assay type: cell-based; details: compounds 10 μM, miltefosine 10 μM or 1 μM
Experimental: Mitochondrial toxicity assay: This assay made use of the MitoTracker Red CMXRos dye (Thermo Fischer Scientific, Waltham, MA, USA), which stains the mitochondria in live cells and its accumulation is dependent on the presence of a membrane potential. The renal carcinoma 786-0 cell line was used for mitochondrial toxicity screening. Cells were harvested from a 75 cm^2 flask at 80% confluency by washing once with 5 mL of rt PBS and incubating with 1 mL of 0.05% v/v trypsin/0.02% v/v EDTA for 3 min. Cells were suspended in 10 mL of prewarmed cell culture media (RPMI-1 640 supplemented with 10% v/v FCS, 100 U/mL penicillin and 100 μg/mL streptomycin) and counted using a Scepter (Merck Millipore, Darmstadt, Germany). The 786-0 cells were diluted to 75,000 cells/mL and 20 μL of this suspension added to each well of a 384-well plate. Cells were incubated for 36 h at 37 °C and 5% CO2, and compounds were added using a predilution plate. The positive control was valinomycin at a final concentration of 1 μM, with the negative control being DMSO at the same concentration. Ten microliters of compounds and controls were added to cells and incubated for 6 h at 37 °C and 5% CO2 in a humidity controlled atmosphere. After incubation, 10 μL of a 200 nM solution of MitoTracker Red CMXRos in prewarmed cell culture media was added to each well, and the 786-0 cells were incubated for an additional 45 min at 37 °C and 5% CO2. MitoTracker Red CMXRos uptake was measured using an Opera Imaging System. To facilitate automatic image analysis, the layout containing the compound area and the valinomycin and DMSO control areas were created and stored. A sublayout of five evenly dispersed fields per well were used. These settings also included a measurement height of 1 μm, which was stored in an exposure file format. By using the stored settings and files, an automated run was repeatedly created and executed. The images were transferred to a file server and uploaded into Columbus 2.4.0 (PerkinElmer, Waltham, MA. USA) using the built-in helper function and analysed therein.

CYP1A2 = biological target: T1, CYP1A2 (Homo sapiens, UniProt P05177); assay: Cytochrome P450 inhibition assay (P450-Glo) CYP1A2; assay type: in vitro ADME; details: compounds 10 μM; miltefosine 10 μM or 1 μM
T1 construct: purchased Corning Inc; host or cells: baculovirus-infected insect cells
T1 sequence (P05177 2-516 limits assumed): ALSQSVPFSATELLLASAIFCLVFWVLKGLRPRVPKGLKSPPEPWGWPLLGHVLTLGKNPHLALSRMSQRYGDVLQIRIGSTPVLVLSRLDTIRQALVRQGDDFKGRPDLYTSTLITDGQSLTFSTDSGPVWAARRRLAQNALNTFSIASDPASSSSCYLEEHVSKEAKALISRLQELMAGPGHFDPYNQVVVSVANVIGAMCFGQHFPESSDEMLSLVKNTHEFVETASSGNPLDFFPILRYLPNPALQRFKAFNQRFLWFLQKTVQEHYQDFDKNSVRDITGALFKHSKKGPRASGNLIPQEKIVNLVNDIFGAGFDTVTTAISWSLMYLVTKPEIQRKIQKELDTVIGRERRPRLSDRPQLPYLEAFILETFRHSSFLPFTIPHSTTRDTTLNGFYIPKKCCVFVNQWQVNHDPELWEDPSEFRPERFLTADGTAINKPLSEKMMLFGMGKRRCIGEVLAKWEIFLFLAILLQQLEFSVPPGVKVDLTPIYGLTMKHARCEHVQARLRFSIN
Excerpt: (§1) Cytochrome (CYP) P450 inhibition assay: These assays made use of microsomal preparations of CYP450 (1A2, 2C9, 2C19, 2D6 and 3A4) from baculovirus-infected insect cells (Corning Inc., Corning, NY, USA) and cytochrome c reductase (and cytochrome b5 for CYP450 3A4). For detection of CYP450 activity, the luminescence-based P450-Glo (Promega Corp., Madison, WI, USA) assay system was used that contained a luminogenic CYP450 substrate, lyophilized luciferin detection reagent and reconstitution buffer. The substrates were luciferin derivatives of CYP450-specific substrates that produce (4S)-4,5-dihydro-2-(6-hydroxybenzothiazolyl)-4-thiazolecarboxylic acid (D-luciferin) after cleavage by CYP450 (CYP450 3A4, luciferin-IPA; CYP450 2C19, luciferin-H EGE; CYP450 2C9, luciferin-H; CYP450 2D6, luciferin-ME EGE; CYP450 1A2, luciferin-1A2). CYP450 reactions were initiated by addition of the NADPH regeneration system to the enzyme–substrate mixture with the luciferin detection reagent stopping the reaction and the D-luciferin being converted to oxyluciferin under the production of light being proportional to the CYP450 activity. The CYP450 assays were performed using the Tecan Fluent liquid-handling automation platform (Tecan Group Ltd., Mannedorf, Switzerland) in the 384-well assay format. Compounds were added into an empty 384-well plate (100 nL/well in 1% v/v DMSO) using the Echo 550 Liquid Handler followed by the addition of 5 μL/well of the CYP450/substrate mixture and incubation for 30 min at 37 °C, after which the reaction was initiated by the addition of the 5 μL/well NADPH regeneration system. After a further 30-min incubation at 37 °C, the CYP450 reaction was stopped and the luciferase reaction was simultaneously initiated by addition of 10 μL/well of luciferin detection reagent, followed by an additional 30-min incubation at 37 °C. The luminescence signal was detected using an Infinite M1000 PRO plate reader (Tecan Group Ltd., Mannedorf, Switzerland). The NCs yielded 0% inhibition (1% v/v DMSO) and standard CYP450 specific inhibitors were used as positive controls, yielding 100% inhibition (CYP450 1A2, alpha-naphthoflavone; CYP450 2C9, sulfaphenazole; CYP450 2C19, troglitazone; CYP450 2D6, quinidine; CYP450 3A4, ketoconazole).
(§2) Data analysis: The screening data were obtained in triplicate and analysed using ActivityBase (IDBS, Guildford, UK), and outlier elimination in the control wells was performed using the 3-sigma method. Unless stated, dose–response experiments were performed in the 11-point format with the IC50 value, Hill slope, minimum signal and maximum signal for each dose–response curve obtained using a four-parameter logistic fit in the XE module of ActivityBase (IDBS).

CYP2C19 = biological target: T2, CYP2C19 (Homo sapiens, UniProt P33261); assay: Cytochrome P450 inhibition assay (P450-Glo) CYP2C19; assay type: in vitro ADME; details: compounds 10 μM; miltefosine 10 μM or 1 μM
T2 construct: purchased Corning Inc; host or cells: baculovirus-infected insect cells
T2 sequence (P33261 whole entry): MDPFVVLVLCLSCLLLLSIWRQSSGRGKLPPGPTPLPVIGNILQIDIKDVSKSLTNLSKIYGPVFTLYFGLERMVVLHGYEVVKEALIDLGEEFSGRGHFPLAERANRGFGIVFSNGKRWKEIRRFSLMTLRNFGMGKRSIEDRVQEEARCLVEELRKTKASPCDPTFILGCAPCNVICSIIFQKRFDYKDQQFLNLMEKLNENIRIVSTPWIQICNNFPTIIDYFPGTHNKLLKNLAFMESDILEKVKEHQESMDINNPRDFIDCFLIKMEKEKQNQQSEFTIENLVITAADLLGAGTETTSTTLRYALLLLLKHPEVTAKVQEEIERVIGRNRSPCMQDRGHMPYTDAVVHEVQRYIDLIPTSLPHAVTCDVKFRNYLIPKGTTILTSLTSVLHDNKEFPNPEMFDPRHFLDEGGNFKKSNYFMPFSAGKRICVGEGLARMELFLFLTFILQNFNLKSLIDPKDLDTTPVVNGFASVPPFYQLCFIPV
Excerpt: as §1, §2

| Structure (SMILES) | % toxicity ± SD at 10 μΜ Mitochondria [1] | % inhibition ± SD at 10 μΜ CYP1A2 (CYP1A2) | % inhibition ± SD at 10 μΜ CYP2C19 (CYP2C19) |
| --- | --- | --- | --- |
| C[N+](C)(C)CCOP(=O)([O-])OCCCCCCCCCCCn1cc(CC2CCCC2)nn1 [Compound 28, 11-(4-(cyclopentylmethyl)-1H-1,2,3-triazol-1-yl)undecyl (2-(trimethylammo nio)ethyl) phosphate inner salt] | 8.99% | –13.84% | –32.71% |
| CCCCCCCCCCCc1nnc(CCCCCCCCCCOP(=O)([O-])OCC[N+](C)(C)C)o1 [Compound 66, 2-(trimethylammonio)ethyl (10-(5-undecyl-1,3,4-oxadiazol-2-yl)decyl) phosphate inner salt] | 19.78% | 12.37% | 23.97% |
| C[N+](C)(C)CCOP(=O)([O-])OCCCCCn1cc(CCCCCCCCN)nn1 [Compound 35, 5-(4-(8-aminooctyl)-1H-1,2,3-triazol-1-yl)pentyl (2-(trimethylammonio)ethyl) phosphate inner salt] | 6.58% | 9.42% | –3.09% |
| CCCCCCCCCCCCCCCCOP(=O)([O-])OCC[N+](C)(C)C [Miltefosine, hexadecylphosphocholine, reference compound] | 3.99% | –20.62% | 7.92% |
| CCCCCCCCCCc1cc(CCCCCCCCCCOP(=O)([O-])OCC[N+](C)(C)C)no1 [Compound 41, 10-(5-decylisoxazol-3-yl)decyl (2-(trimethylammonio)ethyl) phosphate inner salt] | 2.99% | 10.86% | 5.65% |
| CCCCCc1cn(CCCCCCCCCCCOP(=O)([O-])OCC[N+](C)(C)C)nn1 [Compound 25, 11-(4-pentyl-1H-1,2,3-triazol-1-yl)undecyl (2-(trimethylammonio)ethyl) phosphate inner salt] | 11.05% | –20.41% | –32.10% |
| C[N+](C)(C)CCOP(=O)([O-])OCCCCCCCCCCCn1cc(CC2CCCCC2)nn1 [Compound 29, 11-(4-(cyclohexylmethyl)-1H-1,2,3-triazol-1-yl)undecyl (2-(trimethylammonio)ethyl) phosphate inner salt] | 1.08% | –28.56% | –28.74% |
| CCCCCCCc1nnc(CCCCCCCCCCOP(=O)([O-])OCC[N+](C)(C)C)o1 [Compound 65, 10-(5-heptyl-1,3,4-oxadiazol-2-yl)decyl (2-(trimethylammonio)ethyl) phosphate inner salt] | 40.25% | 18.05% | –1.75% |
| CCCCCCCCc1noc(CCCCCOP(=O)([O-])OCC[N+](C)(C)C)n1 [Compound 53, 5-(3-octyl-1,2,4-oxadiazol-5-yl)pentyl (2-(trimethylammonio)ethyl) phosphate inner salt] | –1.08% | 20.03% | –17.22% |
| CCCCCCCCc1noc(CCCCCCCCCCOP(=O)([O-])OCC[N+](C)(C)C)n1 [Compound 54, 10-(3-octyl-1,2,4-oxadiazol-5-yl)decyl (2-(trimethylammonio)ethyl) phosphate inner salt] | 8.56% | 9.37% | 10.43% |
| C[N+](C)(C)CCOP(=O)([O-])OCCCCCCCCCCCn1cc(CCCCCCCCNC(=O)OCc2ccccc2)nn1 [Compound 32, 11-(4-(8-(((benzyloxy)carbonyl)amino)octyl)-1H-1,2,3-triazol-1-yl)undecyl (2-(trimethylammonio)ethyl) phosphate inner salt] | – | 12.02% | – |
| C[N+](C)(C)CCCOP(=O)([O-])OCCCCCCCCCCCn1cc(CC2CCCCC2)nn1 [Compound 33, 11-(4-(cyclohexylmethyl)-1H-1,2,3-triazol-1-yl)undecyl (3-(trimethylammonio)propyl) phosphate inner salt] | -1 ± 4.35% | 15.23% | 4.22% |
| C[N+](C)(C)CCOP(=O)([O-])OCCCCCCCCCCCn1cc(CCCCCCCCC(=O)O)nn1 [Compound 34, 11-(4-(8-carboxyoctyl)-1H-1,2,3-triazol-1-yl)undecyl (2-(trimethylammonio)ethyl) phosphate inner salt] | – | –3.73% | 4.89% |
| C[N+](C)(C)CCOP(=O)([O-])OCCCCCn1cc(CCCCCCCCNC(=O)OCc2ccccc2)nn1 [Compound 31, 5-(4-(8-(((benzyloxy)carbonyl)amino)octyl)-1H-1,2,3-triazol-1-yl)pentyl (2-(trimethylammonio)ethyl) phosphate inner salt] | 5.07% | 13.80% | –2.38% |
